Reference: ChEMBL document CHEMBL5360594, “Astellolides R-W, Drimane-Type Sesquiterpenoids from an Aspergillus parasiticus Strain Associated with an Isopod” (J Nat Prod, 2023)

Columns and labels:
MKN-45 = assay: Cytotoxicity against human MKN-45 cells assessed as inhibition of cell growth at 20 uM incubated for 48 hrs by MTT assay; format: toxicity, cell-based; settings: mkn-45, 48 h
MCF7 = assay: Cytotoxicity against human MCF7 cells assessed as inhibition of cell growth at 20 uM incubated for 48 hrs by MTT assay; format: toxicity, cell-based; settings: mcf7, 48 h
K562 = assay: Cytotoxicity against human K562 cells assessed as inhibition of cell growth at 20 uM incubated for 48 hrs by MTT assay; format: toxicity, cell-based; settings: k562, 48 h
RAW264.7 [1] = assay: Cytotoxicity against mouse RAW264.7 cells assessed as inhibition of cell growth at 30 uM; format: toxicity, cell-based; settings: raw264.7, 30 µM
HCT-116 = assay: Cytotoxicity against human HCT-116 cells assessed as inhibition of cell growth at 20 uM incubated for 48 hrs by MTT assay; format: toxicity, cell-based; settings: hct-116, 48 h
5637 = assay: Cytotoxicity against human 5637 cells assessed as inhibition of cell growth at 20 uM incubated for 48 hrs by MTT assay; format: toxicity, cell-based; settings: human, 5637, 48 h
A549 = assay: Cytotoxicity against human A549 cells assessed as inhibition of cell growth at 20 uM incubated for 48 hrs by MTT assay; format: toxicity, cell-based; settings: a549, 48 h
HepG2 = assay: Cytotoxicity against human HepG2 cells assessed as inhibition of cell growth at 20 uM incubated for 48 hrs by MTT assay; format: toxicity, cell-based; settings: hepg2, 48 h
RAW264.7 [2] = assay: Antiinflammatory activity in mouse RAW264.7 cells assessed as inhibition of LPS-induced NO production preincubated with compound for 30 mins followed by LPS-stimulation and measured after 24 hrs by Griess assay; format: functional, cell-based
CAL-62 = assay: Cytotoxicity against human CAL-62 cells assessed as inhibition of cell growth at 20 uM incubated for 48 hrs by MTT assay; format: toxicity, cell-based; settings: cal-62, 48 h
HeLa = assay: Cytotoxicity against human HeLa cells assessed as inhibition of cell growth at 20 uM incubated for 48 hrs by MTT assay; format: toxicity, cell-based

Row | IC50 (RAW264.7 [2]) | SMILES | Activity (MKN-45) | Activity (MCF7) | Activity (K562) | Activity (RAW264.7 [1]) | Activity (HCT-116) | Activity 5637 | Activity (A549) | Activity (HepG2) | Activity (CAL-62) | Activity (HeLa)
1 | 6.8 µM | CC(=O)OC[C@]12CCCC(C)(C)[C@@H]1[C@H](OC(=O)c1ccccc1)CC1=C2COC1=O | Non-Toxic | Non-Toxic | Non-Toxic | Non-Toxic | Non-Toxic | Non-Toxic | Non-Toxic | Non-Toxic | Non-Toxic | Non-Toxic
2 | 19 µM | CC(=O)OC[C@@]1(C)CCC[C@]2(COC(C)=O)C3=C(C[C@@H](OC(=O)c4cccnc4)[C@@H]12)C(=O)OC3 | Non-Toxic | Non-Toxic | Non-Toxic | Non-Toxic | Non-Toxic | Non-Toxic | Non-Toxic | Non-Toxic | Non-Toxic | Non-Toxic

Continued, molecule first:

Row | SMILES | IC50 (RAW264.7 [2]) | Activity (MKN-45) | Activity (MCF7) | Activity (K562) | Activity (RAW264.7 [1]) | Activity (HCT-116) | Activity 5637 | Activity (A549) | Activity (HepG2) | Activity (CAL-62) | Activity (HeLa)
3 | C[C@]1(CO)CC[C@@H](O)[C@]2(C)C3=C(CC[C@@H]12)C(=O)OC3 | 6.1 µM | Non-Toxic | Non-Toxic | Non-Toxic | Non-Toxic | Non-Toxic | Non-Toxic | Non-Toxic | Non-Toxic | Non-Toxic | Non-Toxic
4 | C[C@]1(CO)CCC[C@]2(CO)C3=C(CC[C@@H]12)C(=O)OC3 | 21 µM | Non-Toxic | Non-Toxic | Non-Toxic | Non-Toxic | Non-Toxic | Non-Toxic | Non-Toxic | Non-Toxic | Non-Toxic | Non-Toxic
5 | CC12CCCC34C5=C(CC(O[C@@H]3OC1)C24)C(=O)OC5 | 22 µM | Non-Toxic | Non-Toxic | Non-Toxic | Non-Toxic | Non-Toxic | Non-Toxic | Non-Toxic | Non-Toxic | Non-Toxic | Non-Toxic
6 | C[C@@H]1C[C@H]2[C@@H]3CCC4=CC(=O)C=C[C@]4(C)[C@@]3(F)[C@@H](O)C[C@]2(C)[C@@]1(O)C(=O)CO [DEXAMETHASONE] | 2.6 µM | – | – | – | – | – | – | – | – | – | –
